Assay results reported in US20250154686A1, “COMPOUND LIBRARY” (CHUGAI SEIYAKU KABUSHIKI KAISHA, priority 2021, published 2025).

Biological target: T1, Bcl-2 protein (Recombinant Human Bcl-2 Protein) (Homo sapiens, UniProt P10415)
T1 construct: purchased Novus Biologicals NBP2-34889
Test: AS-MS evaluation of binding of the Example 4 mixture library (1200 compounds/well) to Bcl-2, ASMS ratio (%)
Conditions: AS-MS, Example 4 mixture library; for ASMS ratio (%) n = 1: Bcl-2, replicate n = 1; for ASMS ratio (%) n = 2: Bcl-2, replicate n = 2
In short: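 Affinity-selection MS: 1200 cpds/well, 20 nM each; hBcl-2 20 μM; 25 mM Tris pH 7.4/150 mM NaCl/0.025% Tween-20/1 mM DTT; 1 h, 23 °C, dark; P-2 size-exclusion spin, MeCN:MeOH 1:1 extraction; RP LC/MS; ratio vs no-protein STD and SEC blank.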

T1 sequence (P10415 whole entry): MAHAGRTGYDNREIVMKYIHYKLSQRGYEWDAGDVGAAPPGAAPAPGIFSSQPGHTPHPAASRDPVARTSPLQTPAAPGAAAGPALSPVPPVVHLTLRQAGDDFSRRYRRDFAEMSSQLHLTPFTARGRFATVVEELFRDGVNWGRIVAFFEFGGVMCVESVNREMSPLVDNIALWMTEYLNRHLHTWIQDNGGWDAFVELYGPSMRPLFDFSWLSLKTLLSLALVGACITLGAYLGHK

Row | Compound | ASMS ratio (%) n = 1 [%] | ASMS ratio (%) n = 2 [%]
1 | CCOc1cncc(-c2cc(CN3CCN(c4ccc(C(=O)NS(=O)(=O)C(C)(C)C)nn4)CC3)cc(OC(C)C)c2)c1 [Compound B2L084-01, N-tert-Butylsulfonyl-6-[4-[3-(5-ethoxypyridin-3-yl)-5-propan-2-yloxyphenylmethyl]piperazin-1-yl]pyridazine-3-carboxamide] | −3.0 | −1.9
2 | CCOc1cccc(-c2cc(OC)c(CN3CCN(c4ccc(C(=O)NS(=O)(=O)C(C)(C)C)nn4)CC3)c(OC)c2)c1 [Compound B2L085-01, N-tert-Butylsulfonyl-6-[4-[[4-(3-ethoxyphenyl)-2,6-dimethoxyphenyl]methyl]piperazin-1-yl]pyridazine-3-carboxamide] | 0.0 | 0.0
3 | CCOc1cncc(-c2cc(OC)c(CN3CCN(c4ccc(C(=O)NS(=O)(=O)C(C)(C)C)nn4)CC3)c(OC)c2)c1 [Compound B2L086-01] |  | 0.0
4 | CCOc1cccc(-c2cc(CN3CCN(c4ccc(C(=O)NS(=O)(=O)C(C)(C)C)nn4)CC3)cc(C(F)(F)F)c2)c1 [Compound B2L087-01, N-tert-Butylsulfonyl-6-[4-[[3-(3-ethoxyphenyl)-5-(trifluoromethyl)phenyl]methyl]piperazin-1-yl]pyridazine-3-carboxamide] | 1.9 | −24.6
5 | CCOc1cncc(-c2cc(CN3CCN(c4ccc(C(=O)NS(=O)(=O)C(C)(C)C)nn4)CC3)cc(C(F)(F)F)c2)c1 [Compound B2L088-01] | 0.0 | 2.8
6 | CCOc1cccc(-c2cc(CN3CCN(c4ccc(C(=O)NS(=O)(=O)C(C)(C)C)nn4)CC3)cc(OC(F)(F)F)c2)c1 [Compound B2L089-01, N-tert-Butylsulfonyl-6-[4-[[3-(3-ethoxyphenyl)-5-(trifluoromethoxy)phenyl]methyl]piperazin-1-yl]pyridazine-3-carboxamide] | 0.0 | 0.0
7 | CCOc1cncc(-c2cc(CN3CCN(c4ccc(C(=O)NS(=O)(=O)C(C)(C)C)nn4)CC3)cc(OC(F)(F)F)c2)c1 [Compound B2L090-01] | 0.0 | 0.0
8 | CCOc1cccc(-c2ccc(CN3CCN(c4ccc(C(=O)NS(=O)(=O)C(C)(C)C)nn4)CC3)c3ccccc23)c1 [Compound B2L091-01] | 0.0 | 0.0
9 | CCOc1cncc(-c2ccc(CN3CCN(c4ccc(C(=O)NS(=O)(=O)C(C)(C)C)nn4)CC3)c3ccccc23)c1 [Compound B2L092-01, N-tert-Butylsulfonyl-6-[4-[[4-(5-ethoxypyridin-3-yl)naphthalen-1-yl]methyl]piperazin-1-yl]pyridazine-3-carboxamide] | 5.5 | 7.8
10 | CCOc1cccc(-c2csc(CN3CCN(c4ccc(C(=O)NS(=O)(=O)C(C)(C)C)nn4)CC3)c2)c1 [Compound B2L093-01] |  | 0.0
11 | CCOc1cncc(-c2csc(CN3CCN(c4ccc(C(=O)NS(=O)(=O)C(C)(C)C)nn4)CC3)c2)c1 [Compound B2L094-01, N-tert-Butylsulfonyl-6-[4-[[4-(5-ethoxypyridin-3-yl)thiophen-2-yl]methyl]piperazin-1-yl]pyridazine-3-carboxamide] | 0.2 | 1.8
12 | CCOc1cccc(C#Cc2ccccc2CN2CCN(c3ccc(C(=O)NS(=O)(=O)C(C)(C)C)nn3)CC2)c1 [Compound B2L095-01] | 0.0 | 0.0
13 | CCOc1cncc(C#Cc2ccccc2CN2CCN(c3ccc(C(=O)NS(=O)(=O)C(C)(C)C)nn3)CC2)c1 [Compound B2L096-01] | 0.0 | 0.0
14 | CCOc1cccc(-c2ccc(C(C)N3CCN(c4ccc(C(=O)NS(=O)(=O)C(C)(C)C)cc4)CC3)cc2)c1 (centres unmarked) [Compound B2L097-01, N-tert-Butylsulfonyl-4-[4-[1-[4-(3-ethoxyphenyl)phenyl]ethyl]piperazin-1-yl]benzamide] | 0.0 | 0.0
15 | CCOc1cncc(-c2ccc(C(C)N3CCN(c4ccc(C(=O)NS(=O)(=O)C(C)(C)C)cc4)CC3)cc2)c1 (centres unmarked) [Compound B2L098-01, N-tert-Butylsulfonyl-4-[4-[1-[4-(5-ethoxypyridin-3-yl)phenyl]ethyl]piperazin-1-yl]benzamide] | 3.9 | −5.0
16 | CCOc1cncc(-c2ccc(C(C)N3CCN(c4ccc(C(=O)NS(=O)(=O)C(C)(C)C)cc4)CC3)c(F)c2)c1 (centres unmarked) [Compound B2L100-01, N-tert-Butylsulfonyl-4-[4-[1-[4-(5-ethoxypyridin-3-yl)-2-fluorophenyl]ethyl]piperazin-1-yl]benzamide] | 0.0 | 0.0
17 | CCOc1cccc(-c2csc(C(=O)N3CCN(c4ccc(C(=O)NS(=O)(=O)CCC(F)(F)F)nn4)CC3)c2)c1 [Compound B2N001-01, 6-[4-[4-(3-Ethoxyphenyl)thiophene-2-carbonyl]piperazin-1-yl]-N-(3,3,3-trifluoropropylsulfonyl)pyridazine-3-carboxamide] |  | 0.0
18 | CCOc1cncc(-c2csc(C(=O)N3CCN(c4ccc(C(=O)NS(=O)(=O)CCC(F)(F)F)nn4)CC3)c2)c1 [Compound B2N002-01, 6-[4-[4-(5-Ethoxypyridin-3-yl)thiophene-2-carbonyl]piperazin-1-yl]-N-(3,3,3-trifluoropropylsulfonyl)pyridazine-3-carboxamide] | 0.0 | 0.0
19 | CCOc1cccc(-c2ccc(C(=O)N3CCN(c4ccc(C(=O)NS(=O)(=O)CCC(F)(F)F)nn4)CC3)cc2C)c1 [Compound B2N003-01, 6-[4-[4-(3-Ethoxyphenyl)-3-methylbenzoyl]piperazin-1-yl]-N-(3,3,3-trifluoropropylsulfonyl)pyridazine-3-carboxamide] | 0.0 | 0.0
20 | CCOc1cncc(-c2ccc(C(=O)N3CCN(c4ccc(C(=O)NS(=O)(=O)CCC(F)(F)F)nn4)CC3)cc2C)c1 [Compound B2N004-01, 6-[4-[4-(5-Ethoxypyridin-3-yl)-3-methylbenzoyl]piperazin-1-yl]-N-(3,3,3-trifluoropropylsulfonyl)pyridazine-3-carboxamide] | 1.2 | −2.0

Continued, values first:

Row | ASMS ratio (%) n = 1 [%] | ASMS ratio (%) n = 2 [%] | Compound
21 | 0.0 | 0.0 | CCOc1cccc(C#Cc2ccccc2C(=O)N2CCN(c3ccc(C(=O)NS(=O)(=O)CCC(F)(F)F)nn3)CC2)c1 [Compound B2N007-01, 6-[4-[2-[2-(3-Ethoxyphenyl)ethynyl]benzoyl]piperazin-1-yl]-N-(3,3,3-trifluoropropylsulfonyl)pyridazine-3-carboxamide]
22 | 0.0 | −0.4 | CCOc1cncc(C#Cc2ccccc2C(=O)N2CCN(c3ccc(C(=O)NS(=O)(=O)CCC(F)(F)F)nn3)CC2)c1 [Compound B2N008-01, 6-[4-[2-[2-(5-Ethoxypyridin-3-yl)ethynyl]benzoyl]piperazin-1-yl]-N-(3,3,3-trifluoropropylsulfonyl)pyridazine-3-carboxamide]
23 | 0.0 | −0.4 | CCOc1cccc(C#Cc2cncc(C(=O)N3CCN(c4ccc(C(=O)NS(=O)(=O)CCC(F)(F)F)nn4)CC3)c2)c1 [Compound B2N009-01, 6-[4-[5-[2-(3-Ethoxyphenyl)ethynyl]pyridine-3-carbonyl]piperazin-1-yl]-N-(3,3,3-trifluoropropylsulfonyl)pyridazine-3-carboxamide]
24 | 0.0 | 0.0 | CCOc1cncc(C#Cc2cncc(C(=O)N3CCN(c4ccc(C(=O)NS(=O)(=O)CCC(F)(F)F)nn4)CC3)c2)c1 [Compound B2N010-01, 6-[4-[5-[2-(5-Ethoxypyridin-3-yl)ethynyl]pyridine-3-carbonyl]piperazin-1-yl]-N-(3,3,3-trifluoropropylsulfonyl)pyridazine-3-carboxamide]
25 | 0.0 | 0.0 | CCOc1cccc(-c2ccccc2CCC(=O)N2CCN(c3ccc(C(=O)NS(=O)(=O)CCC(F)(F)F)nn3)CC2)c1 [Compound B2N011-01, 6-[4-[3-[2-(3-Ethoxyphenyl)phenyl]propanoyl]piperazin-1-yl]-N-(3,3,3-trifluoropropylsulfonyl)pyridazine-3-carboxamide]
26 | 0.0 | 0.0 | CCOc1cncc(-c2ccccc2CCC(=O)N2CCN(c3ccc(C(=O)NS(=O)(=O)CCC(F)(F)F)nn3)CC2)c1 [Compound B2N012-01, 6-[4-[3-[2-(5-Ethoxypyridin-3-yl)phenyl]propanoyl]piperazin-1-yl]-N-(3,3,3-trifluoropropylsulfonyl)pyridazine-3-carboxamide]
27 | 0.0 | 0.0 | CCOc1cccc(-c2ccc(C(=O)N3CCN(c4ccc(C(=O)NS(=O)(=O)CCC(F)(F)F)nn4)CC3)c3ccccc23)c1 [Compound B2N013-01, 6-[4-[4-(3-Ethoxyphenyl)naphthalene-1-carbonyl]piperazin-1-yl]-N-(3,3,3-trifluoropropylsulfonyl)pyridazine-3-carboxamide]
28 | 0.0 | 0.0 | CCOc1cncc(-c2ccc(C(=O)N3CCN(c4ccc(C(=O)NS(=O)(=O)CCC(F)(F)F)nn4)CC3)c3ccccc23)c1 [Compound B2N014-01, 6-[4-[4-(5-Ethoxypyridin-3-yl)naphthalene-1-carbonyl]piperazin-1-yl]-N-(3,3,3-trifluoropropylsulfonyl)pyridazine-3-carboxamide]
